Laboratory results: PubChem BioAssay AID2060615 (Molecular Pharmacology Branch, DTP, NCI, 2025)
pIC50: −log10 of the molar value.

Tested on: 496974-208-R-J2-PDC complex spheroids, growth % test/control
Assay: Anticancer human tumor 496974-208-R-J2-PDC patient-derived pancreatic carcinoma cell line growth inhibition [CLK]
Settings: for pIC50: curve of first compound; for viability, T/C: stronger effect = lower value
In short: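 Patient-derived tumor cells grown as complex spheroids with HUVEC endothelial cells and mesenchymal stem cells, treated with drug combinations. Concentrations descend in half-log steps from near clinical Cmax, or from 10 microM if Cmax unknown.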

[1] = second compound 0.0316 µM, first compound 0.00316 µM
[2] = second compound 0.0316 µM, first compound 0.01 µM
[3] = second compound 0.0316 µM, first compound 0.0316 µM
[4] = second compound 0.0316 µM, first compound 0.1 µM
[5] = second compound 0.0316 µM, first compound 0.316 µM
[6] = second compound 0.0316 µM, first compound 1 µM
[7] = second compound 0.1 µM, first compound 0.00316 µM
[8] = second compound 0.1 µM, first compound 0.01 µM
[9] = second compound 0.1 µM, first compound 0.0316 µM
[10] = second compound 0.1 µM, first compound 0.1 µM
[11] = second compound 0.1 µM, first compound 0.316 µM
[12] = second compound 0.1 µM, first compound 1 µM
[13] = second compound 0.316 µM, first compound 0.00316 µM
[14] = second compound 0.316 µM, first compound 0.01 µM
[15] = second compound 0.316 µM, first compound 0.0316 µM
[16] = second compound 0.316 µM, first compound 0.1 µM
[17] = second compound 0.316 µM, first compound 0.316 µM
[18] = second compound 0.316 µM, first compound 1 µM
[19] = second compound 1 µM, first compound 0.00316 µM
[20] = second compound 1 µM, first compound 0.01 µM
[21] = second compound 1 µM, first compound 0.0316 µM
[22] = second compound 1 µM, first compound 0.1 µM
[23] = second compound 1 µM, first compound 0.316 µM
[24] = second compound 1 µM, first compound 1 µM
[25] = second compound 3.16 µM, first compound 0.00316 µM
[26] = second compound 3.16 µM, first compound 0.01 µM
[27] = second compound 3.16 µM, first compound 0.0316 µM
[28] = second compound 3.16 µM, first compound 0.1 µM
[29] = second compound 3.16 µM, first compound 0.316 µM
[30] = second compound 3.16 µM, first compound 1 µM
[31] = second compound 10 µM, first compound 0.00316 µM
[32] = second compound 10 µM, first compound 0.01 µM
[33] = second compound 10 µM, first compound 0.0316 µM
[34] = second compound 10 µM, first compound 0.1 µM
[35] = second compound 10 µM, first compound 0.316 µM
[36] = second compound 10 µM, first compound 1 µM
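Note: spheroids exposed to the drugs for 7 days before readout.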
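Throughout, for viability, T/C: 100% = DMSO vehicle control wells.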

Question: With `CCc1c2c(nc3ccc(O)cc13)-c1cc3c(c(=O)n1C2)COC(=O)[C@]3(O)CC` + CN1CCN(c2cc(C(=O)Nc3cc4cc(-c5cnn(C)c5)ccc4cn3)ccn2)CC1 as the compound, how does the pIC50 (second compound 0.0316 µM) read?
Answer: 8.11

Question: What about the pIC50 (second compound 0.1 µM) of the same compound?
Answer: > 8.50

Question: And the pIC50 (second compound 0.316 µM)?
Answer: > 8.50

Question: What about the pIC50 (second compound 1 µM) of the same compound?
Answer: > 8.50

Question: And the pIC50 (second compound 3.16 µM)?
Answer: > 8.50

Question: And the pIC50 (second compound 10 µM)?
Answer: > 8.50

Question: What about the viability, T/C [1] of the same compound?
Answer: 62.2%

Question: And the viability, T/C [2]?
Answer: 47.5%

Question: What about the viability, T/C [3] of the same compound?
Answer: 26.7%

Question: And the viability, T/C [4]?
Answer: 14.5%

Question: What about the viability, T/C [5] of the same compound?
Answer: 6.46%

Question: And the viability, T/C [6]?
Answer: 1.65%

Question: What about the viability, T/C [7] of the same compound?
Answer: 49.3%

Question: And the viability, T/C [8]?
Answer: 38.7%

Question: And the viability, T/C [9]?
Answer: 23.3%

Question: What about the viability, T/C [10] of the same compound?
Answer: 10.7%

Question: And the viability, T/C [11]?
Answer: 3.35%

Question: And the viability, T/C [12]?
Answer: 0.91%

Question: And the viability, T/C [13]?
Answer: 6.81%

Question: What about the viability, T/C [14] of the same compound?
Answer: 5.74%

Question: What about the viability, T/C [15] of the same compound?
Answer: 3.64%

Question: What about the viability, T/C [16] of the same compound?
Answer: 2%

Question: What about the viability, T/C [17] of the same compound?
Answer: 0.48%

Question: And the viability, T/C [18]?
Answer: 1.92%

Question: What about the viability, T/C [19] of the same compound?
Answer: 0.35%

Question: And the viability, T/C [20]?
Answer: 0.69%

Question: And the viability, T/C [21]?
Answer: 3.07%

Question: And the viability, T/C [22]?
Answer: 0.44%

Question: And the viability, T/C [23]?
Answer: 0.26%

Question: What about the viability, T/C [24] of the same compound?
Answer: 1.23%

Question: What about the viability, T/C [25] of the same compound?
Answer: 0.46%

Question: What about the viability, T/C [26] of the same compound?
Answer: 0.62%

Question: And the viability, T/C [27]?
Answer: 1.9%

Question: And the viability, T/C [28]?
Answer: 0.34%

Question: What about the viability, T/C [29] of the same compound?
Answer: 0.73%

Question: And the viability, T/C [30]?
Answer: 0.29%

Question: And the viability, T/C [31]?
Answer: 0.14%

Question: What about the viability, T/C [32] of the same compound?
Answer: 0.25%

Question: What about the viability, T/C [33] of the same compound?
Answer: 1.21%

Question: And the viability, T/C [34]?
Answer: 0.21%

Question: What about the viability, T/C [35] of the same compound?
Answer: 0.65%

Question: And the viability, T/C [36]?
Answer: 3.41%

Question: With `CCN1CCN(Cc2ccc(Nc3ncc(F)c(-c4cc(F)c5nc(C)n(C(C)C)c5c4)n3)nc2)CC1` + CNC(=O)c1ccc(Nc2nc(OC3CCCC3)c3c(-c4ccc5nc(C)oc5c4)c[nH]c3n2)c(OC)c1 as the compound, how does the pIC50 (second compound 0.0316 µM) read?
Answer: < 6.00

Question: And the pIC50 (second compound 0.1 µM)?
Answer: < 6.00

Question: What about the pIC50 (second compound 0.316 µM) of the same compound?
Answer: < 6.00

Question: And the pIC50 (second compound 1 µM)?
Answer: < 6.00

Question: And the pIC50 (second compound 3.16 µM)?
Answer: < 6.00

Question: And the pIC50 (second compound 10 µM)?
Answer: < 6.00

Question: And the viability, T/C [1]?
Answer: 91.7%

Question: And the viability, T/C [2]?
Answer: 90.2%

Question: What about the viability, T/C [3] of the same compound?
Answer: 90.1%

Question: What about the viability, T/C [4] of the same compound?
Answer: 94.2%

Question: And the viability, T/C [5]?
Answer: 98%

Question: And the viability, T/C [6]?
Answer: 98.4%

Question: What about the viability, T/C [7] of the same compound?
Answer: 89.5%

Question: And the viability, T/C [8]?
Answer: 88.9%

Question: What about the viability, T/C [9] of the same compound?
Answer: 87.9%

Question: What about the viability, T/C [10] of the same compound?
Answer: 84.2%

Question: And the viability, T/C [11]?
Answer: 86.8%

Question: And the viability, T/C [12]?
Answer: 97.5%

Question: What about the viability, T/C [13] of the same compound?
Answer: 81.3%

Question: And the viability, T/C [14]?
Answer: 81.9%

Question: And the viability, T/C [15]?
Answer: 87.8%

Question: What about the viability, T/C [16] of the same compound?
Answer: 81.4%

Question: And the viability, T/C [17]?
Answer: 85.4%

Question: And the viability, T/C [18]?
Answer: 94.8%

Question: What about the viability, T/C [19] of the same compound?
Answer: 78.7%

Question: And the viability, T/C [20]?
Answer: 81.2%

Question: And the viability, T/C [21]?
Answer: 77.7%

Question: What about the viability, T/C [22] of the same compound?
Answer: 76.3%

Question: What about the viability, T/C [23] of the same compound?
Answer: 92.6%

Question: What about the viability, T/C [24] of the same compound?
Answer: 81.8%

Question: And the viability, T/C [25]?
Answer: 72.5%

Question: And the viability, T/C [26]?
Answer: 71.9%

Question: What about the viability, T/C [27] of the same compound?
Answer: 66.7%

Question: What about the viability, T/C [28] of the same compound?
Answer: 77.6%

Question: What about the viability, T/C [29] of the same compound?
Answer: 69.3%

Question: And the viability, T/C [30]?
Answer: 73.7%

Question: What about the viability, T/C [31] of the same compound?
Answer: 63%

Question: And the viability, T/C [32]?
Answer: 61.7%

Question: And the viability, T/C [33]?
Answer: 67.7%

Question: What about the viability, T/C [34] of the same compound?
Answer: 69.3%

Question: What about the viability, T/C [35] of the same compound?
Answer: 74.7%

Question: What about the viability, T/C [36] of the same compound?
Answer: 75%
